{"source": "BindingDB's records for PubMed 10900230", "about": "(University of Michigan, 2000)", "note": "pKi: −log10 of the molar value."}
{"biological_target": "T1, Alpha-2A adrenergic receptor (Sus scrofa, UniProt P18871)", "T1 sequence (P18871 whole entry)": "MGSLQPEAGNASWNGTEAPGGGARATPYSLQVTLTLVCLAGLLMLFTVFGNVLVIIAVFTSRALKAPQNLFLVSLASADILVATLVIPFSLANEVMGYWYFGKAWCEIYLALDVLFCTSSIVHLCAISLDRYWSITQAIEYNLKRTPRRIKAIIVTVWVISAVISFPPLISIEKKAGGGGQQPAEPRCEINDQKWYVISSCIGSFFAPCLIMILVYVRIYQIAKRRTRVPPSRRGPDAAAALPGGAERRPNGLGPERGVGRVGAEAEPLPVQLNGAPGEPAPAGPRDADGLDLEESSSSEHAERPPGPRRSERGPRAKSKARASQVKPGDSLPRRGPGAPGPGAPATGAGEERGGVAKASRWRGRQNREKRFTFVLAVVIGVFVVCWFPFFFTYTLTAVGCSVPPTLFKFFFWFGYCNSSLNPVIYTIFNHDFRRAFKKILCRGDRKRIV"}
{"smiles": "Clc1cccc(Cl)c1N=C1NCCN1", "note": "[2-(2,6-dichloroanilino)-2-imidazoline]", "pKi": 7.07}
{"smiles": "Cc1cccc(C)c1N=C1NCCCS1", "note": "[(5,6-Dihydro-4H-[1,3]thiazin-2-yl)-(2,6-dimethyl-phenyl)-amine]", "pKi": 5.50}
{"smiles": "CNCC(O)c1ccc(O)c(O)c1", "note": "(stereo unspecified) [EPINEPHRINE]", "pKi": 6.19}
{"smiles": "NC(N)=NN=Cc1c(Cl)cccc1Cl", "note": "[Guanabenz]", "pKi": 7.24}
{"smiles": "Clc1cc(I)cc(Cl)c1N=C1NCCN1", "note": "[Iodoclonidine-p]", "pKi": 7.29}
{"smiles": "CC(C)NCC(O)c1ccc(O)c(O)c1", "note": "(stereo not drawn) [Isoproterenol,(+)]", "pKi": "< 5.00"}
{"smiles": "CCN1CCc2nc(N)oc2CC1", "note": "[NSC_169743]", "pKi": "< 5.00"}
{"smiles": "NCC(O)c1ccc(O)c(O)c1", "note": "(stereo not drawn) [Noradrenaline,(+)]", "pKi": 5.25}
{"smiles": "Cc1cc(C(C)(C)C)c(O)c(C)c1CC1=NCCN1", "note": "[SMR000059324]", "pKi": 7.45}
{"smiles": "Brc1c(NC2=NCCN2)ccc2nccnc12", "note": "[UK 14,304]", "pKi": 6.32}
{"smiles": "Nc1cc(Cl)c(N=C2NCCN2)c(Cl)c1", "note": "[p-AMINOCLONIDINE]", "pKi": 6.54}
